Data from the CheMixHub viscosity set.
Several values for one entry are separate records, joined by “and”; a condition that tells them apart may be missing. Equal values may be shown once. ± gives the uncertainty stated by the source.

Assay: xn = mol fraction of the nth substance listed

CCCO + O
Conditions | viscosity
293.15 K, 100 kPa, x1 = 0.07 | 2.217 ± 0.0067 mPa·s
293.15 K, 100 kPa, x1 = 0.2 | 3.175 ± 0.0095 mPa·s and 3.013 ± 0.009 mPa·s
293.15 K, 101 kPa, x1 = 0.01 | 1.156 ± 0.008 mPa·s
293.15 K, 101 kPa, x1 = 0.02 | 1.335 ± 0.009 mPa·s
293.15 K, 101 kPa, x1 = 0.05 | 1.898 ± 0.013 mPa·s
293.15 K, 101 kPa, x1 = 0.07 | 2.209 ± 0.015 mPa·s
293.15 K, 101 kPa, x1 = 0.1 | 2.545 ± 0.017 mPa·s
293.15 K, 101 kPa, x1 = 0.2838 | 3.191 ± 0.042 mPa·s
293.15 K, 101 kPa, x1 = 0.3 | 3.173 ± 0.021 mPa·s
293.15 K, 101 kPa, x1 = 0.4 | 3.053 ± 0.02 mPa·s
293.15 K, 101 kPa, x1 = 0.5 | 2.88 ± 0.019 mPa·s
293.15 K, 101 kPa, x1 = 0.6 | 2.707 ± 0.018 mPa·s
293.15 K, 101 kPa, x1 = 0.7001 | 2.537 ± 0.017 mPa·s
293.15 K, 101 kPa, x1 = 0.8 | 2.403 ± 0.017 mPa·s
298.15 K, 101 kPa, x1 = 0.0058 | 0.9625 ± 0.007 mPa·s
298.15 K, 101 kPa, x1 = 0.01 | 1.024 ± 0.007 mPa·s
298.15 K, 101 kPa, x1 = 0.02 | 1.16 ± 0.008 mPa·s
298.15 K, 101 kPa, x1 = 0.0237 | 1.225 ± 0.009 mPa·s
298.15 K, 101 kPa, x1 = 0.0461 | 1.552 ± 0.012 mPa·s
298.15 K, 101 kPa, x1 = 0.05 | 1.603 ± 0.011 mPa·s
298.15 K, 101 kPa, x1 = 0.0678 | 1.82 ± 0.015 mPa·s
298.15 K, 101 kPa, x1 = 0.07 | 1.844 ± 0.012 mPa·s
298.15 K, 101 kPa, x1 = 0.0976 | 2.164 ± 0.019 mPa·s
298.15 K, 101 kPa, x1 = 0.1195 | 2.263 ± 0.02 mPa·s
298.15 K, 101 kPa, x1 = 0.1833 | 2.576 ± 0.025 mPa·s
298.15 K, 101 kPa, x1 = 0.2398 | 2.682 ± 0.029 mPa·s
298.15 K, 101 kPa, x1 = 0.2838 | 2.685 ± 0.036 mPa·s
298.15 K, 101 kPa, x1 = 0.3108 | 2.702 ± 0.033 mPa·s
298.15 K, 101 kPa, x1 = 0.4 | 2.592 ± 0.017 mPa·s
298.15 K, 101 kPa, x1 = 0.4971 | 2.511 ± 0.039 mPa·s
298.15 K, 101 kPa, x1 = 0.5 | 2.465 ± 0.017 mPa·s
298.15 K, 101 kPa, x1 = 0.6 | 2.333 ± 0.016 mPa·s
298.15 K, 101 kPa, x1 = 0.6916 | 2.236 ± 0.043 mPa·s
298.15 K, 101 kPa, x1 = 0.7001 | 2.202 ± 0.015 mPa·s
298.15 K, 101 kPa, x1 = 0.8 | 2.097 ± 0.015 mPa·s
298.15 K, 101 kPa, x1 = 0.8011 | 2.129 ± 0.046 mPa·s
298.15 K, 101 kPa, x1 = 0.8967 | 2.039 ± 0.048 mPa·s
298.15 K, 101 kPa, x2 = 0.0021 | 1.985 ± 0.018 mPa·s
298.15 K, 101 kPa, x2 = 0.0695 | 2.041 ± 0.018 mPa·s
298.15 K, 101 kPa, x2 = 0.0932 | 2.063 ± 0.018 mPa·s
298.15 K, 101 kPa, x2 = 0.1232 | 2.085 ± 0.018 mPa·s
298.15 K, 101 kPa, x2 = 0.1439 | 2.104 ± 0.018 mPa·s
298.15 K, 101 kPa, x2 = 0.1892 | 2.142 ± 0.018 mPa·s
298.15 K, 101 kPa, x2 = 0.2084 | 2.16 ± 0.018 mPa·s
298.15 K, 101 kPa, x2 = 0.9678 | 1.11 ± 0.0087 mPa·s
298.15 K, 101.3 kPa, x1 = 0.01 | 1.027 ± 0.029 mPa·s
298.15 K, 101.3 kPa, x1 = 0.025 | 1.247 ± 0.034 mPa·s
298.15 K, 101.3 kPa, x1 = 0.045 | 1.55 ± 0.042 mPa·s
298.15 K, 101.3 kPa, x1 = 0.065 | 1.81 ± 0.049 mPa·s
298.15 K, 101.3 kPa, x1 = 0.08 | 1.969 ± 0.053 mPa·s
303.15 K, 101 kPa, x1 = 0.01 | 0.906 ± 0.006 mPa·s
303.15 K, 101 kPa, x1 = 0.02 | 1.019 ± 0.007 mPa·s
303.15 K, 101 kPa, x1 = 0.05 | 1.366 ± 0.009 mPa·s
303.15 K, 101 kPa, x1 = 0.07 | 1.555 ± 0.01 mPa·s
303.15 K, 101 kPa, x1 = 0.1 | 1.786 ± 0.012 mPa·s
303.15 K, 101 kPa, x1 = 0.2838 | 2.277 ± 0.03 mPa·s
303.15 K, 101 kPa, x1 = 0.3 | 2.267 ± 0.015 mPa·s
303.15 K, 101 kPa, x1 = 0.4 | 2.216 ± 0.015 mPa·s
303.15 K, 101 kPa, x1 = 0.5 | 2.118 ± 0.014 mPa·s
303.15 K, 101 kPa, x1 = 0.6 | 2.023 ± 0.014 mPa·s
303.15 K, 101 kPa, x1 = 0.7001 | 1.92 ± 0.013 mPa·s
303.15 K, 101 kPa, x2 = 0.0998 | 1.794 ± 0.011 mPa·s
303.15 K, 101 kPa, x2 = 0.2 | 1.852 ± 0.011 mPa·s
303.15 K, 101 kPa, x2 = 0.2998 | 1.94 ± 0.012 mPa·s
303.15 K, 101 kPa, x2 = 0.5001 | 2.135 ± 0.013 mPa·s
303.15 K, 101 kPa, x2 = 0.6996 | 2.273 ± 0.013 mPa·s
303.15 K, 101 kPa, x2 = 0.7953 | 2.212 ± 0.013 mPa·s
303.15 K, 101 kPa, x2 = 0.8997 | 1.795 ± 0.011 mPa·s
303.15 K, 101 kPa, x2 = 0.9401 | 1.463 ± 0.009 mPa·s
303.15 K, 101 kPa, x2 = 0.98 | 1.025 ± 0.006 mPa·s
308.15 K, 101 kPa, x1 = 0.01 | 0.81 ± 0.006 mPa·s
308.15 K, 101 kPa, x1 = 0.02 | 0.912 ± 0.006 mPa·s
308.15 K, 101 kPa, x1 = 0.05 | 1.187 ± 0.008 mPa·s
308.15 K, 101 kPa, x1 = 0.07 | 1.342 ± 0.009 mPa·s
308.15 K, 101 kPa, x1 = 0.1 | 1.53 ± 0.01 mPa·s
308.15 K, 101 kPa, x1 = 0.2838 | 1.951 ± 0.025 mPa·s
308.15 K, 101 kPa, x1 = 0.3 | 1.953 ± 0.013 mPa·s
308.15 K, 101 kPa, x1 = 0.4 | 1.915 ± 0.013 mPa·s
308.15 K, 101 kPa, x1 = 0.5 | 1.84 ± 0.013 mPa·s
308.15 K, 101 kPa, x1 = 0.6 | 1.765 ± 0.012 mPa·s
308.15 K, 101 kPa, x1 = 0.7001 | 1.686 ± 0.012 mPa·s
308.15 K, 101 kPa, x1 = 0.8 | 1.623 ± 0.011 mPa·s
308.15 K, 101 kPa, x2 = 0.9678 | 0.9401 ± 0.0076 mPa·s
313.15 K, 101 kPa, x1 = 0.01 | 0.728 ± 0.005 mPa·s
313.15 K, 101 kPa, x1 = 0.02 | 0.807 ± 0.006 mPa·s
313.15 K, 101 kPa, x1 = 0.05 | 1.039 ± 0.007 mPa·s
313.15 K, 101 kPa, x1 = 0.07 | 1.167 ± 0.008 mPa·s
313.15 K, 101 kPa, x1 = 0.1 | 1.33 ± 0.009 mPa·s
313.15 K, 101 kPa, x1 = 0.2 | 1.625 ± 0.011 mPa·s
313.15 K, 101 kPa, x1 = 0.2838 | 1.69 ± 0.022 mPa·s
313.15 K, 101 kPa, x1 = 0.3 | 1.692 ± 0.011 mPa·s
313.15 K, 101 kPa, x1 = 0.5 | 1.61 ± 0.011 mPa·s
313.15 K, 101 kPa, x1 = 0.6 | 1.547 ± 0.011 mPa·s
313.15 K, 101 kPa, x1 = 0.7001 | 1.485 ± 0.01 mPa·s
318.15 K, 101 kPa, x1 = 0.01 | 0.659 ± 0.005 mPa·s
318.15 K, 101 kPa, x1 = 0.02 | 0.726 ± 0.005 mPa·s
318.15 K, 101 kPa, x1 = 0.05 | 0.919 ± 0.006 mPa·s
318.15 K, 101 kPa, x1 = 0.07 | 1.027 ± 0.007 mPa·s
318.15 K, 101 kPa, x1 = 0.1 | 1.164 ± 0.008 mPa·s
318.15 K, 101 kPa, x1 = 0.2 | 1.42 ± 0.01 mPa·s
318.15 K, 101 kPa, x1 = 0.3 | 1.479 ± 0.01 mPa·s
318.15 K, 101 kPa, x1 = 0.4 | 1.46 ± 0.01 mPa·s
318.15 K, 101 kPa, x1 = 0.5 | 1.416 ± 0.01 mPa·s
318.15 K, 101 kPa, x1 = 0.6 | 1.366 ± 0.01 mPa·s
318.15 K, 101 kPa, x1 = 0.7001 | 1.315 ± 0.009 mPa·s
318.15 K, 101 kPa, x2 = 0.9678 | 0.819 ± 0.0067 mPa·s
323.15 K, 100 kPa, x1 = 0.07 | 0.917 ± 0.0028 mPa·s
323.15 K, 100 kPa, x1 = 0.2 | 1.212 ± 0.0036 mPa·s
323.15 K, 100 kPa, x1 = 0.3 | 1.314 ± 0.0039 mPa·s
323.15 K, 101 kPa, x1 = 0.01 | 0.6 ± 0.004 mPa·s
323.15 K, 101 kPa, x1 = 0.02 | 0.657 ± 0.005 mPa·s
323.15 K, 101 kPa, x1 = 0.05 | 0.82 ± 0.006 mPa·s
323.15 K, 101 kPa, x1 = 0.07 | 0.912 ± 0.006 mPa·s
323.15 K, 101 kPa, x1 = 0.1 | 1.03 ± 0.007 mPa·s
323.15 K, 101 kPa, x1 = 0.2 | 1.25 ± 0.009 mPa·s
323.15 K, 101 kPa, x1 = 0.5 | 1.252 ± 0.009 mPa·s
323.15 K, 101 kPa, x1 = 0.6 | 1.212 ± 0.009 mPa·s
323.15 K, 101 kPa, x1 = 0.7001 | 1.171 ± 0.008 mPa·s
